Measured values from patent publication US9422339B2, “Immunomodulating cyclic compounds” (Aurigene Discovery Technologies Limited, priority 2012, dated 2016).
Like-named read-outs stand apart in the source and are kept apart here. Where a SMILES comes first, the peptide text is derived from it. Bridges are numbered along the chain shown (N, C = ends). [ ]: non-standard residue; d: D form. ξ: configuration not given here. ξE = NC(CCC(=O)O)C(=O)O; ξQ = NC(=O)CCC(N)C(=O)O; ξK = NCCCCC(N)C(=O)O; Ahx = NCCCCCC(=O)O; ξS = NC(CO)C(=O)O

What was measured:
PD1-PDL1 interaction = target: T1, PD1-PDL1 interaction (Homo sapiens, UniProt Q9NZQ7); test: CFSE mouse splenocyte proliferation assay (FACS), co-culture with MDA-MB-231 tumor cells expressing PD-L1; format: cell-based; conditions: for % Splenocyte proliferation: mouse splenocytes stimulated with anti-CD3/CD28, co-culture with MDAMB231 over expressing PDL1, 72 hrs, background 13, stimulated splenocytes 72
T1 construct: endogenous in cells; host or cells: MDA-MB-231 tumor cells (PD-L1); primary splenocytes of C57BL/6 mice (PD-1)
Description: The effect of PD1 derived peptides on mouse splenocyte proliferation inhibited by PDL1/PDL2 or tumor cells expressing PDL; analyzed by Fluorescence Activated Cell Shorting (FACS) method using CFSE labeling. Mouse splenocytes harvested from 6-8 weeks old C57 BL6 mice; RPMI 1640 (GIBCO, Cat #11875); DMEM with high glucose (GIBCO, Cat # D6429); Fetal Bovine Serum [Hyclone, Cat # SH30071.03]; Penicillin (10000 unit/ml)-Streptomycin (10,000 μg/ml) Liquid (GIBCO, Cat #15140-122); MEM Sodium Pyruvate solution 100 mM (100×), Liquid (GIBCO, Cat #11360); Nonessential amino acid (GIBCO, Cat #11140); L-Glutamine (GIBCO, Cat #25030); Anti-CD3 antibody (eBiosciences—16-0032); Anti-CD28 antibody (eBiosciences—16-0281); ACK lysis buffer (1 mL) (GIBCO, Cat #—A10492); Histopaque (density-1.083 gm/ml) (SIGMA 10831); Trypan blue solution (SIGMA-T8154); 2 ml Norm Ject Luer Lock syringe—(Sigma 2014-12); 40 μm nylon cell strainer (BD FALCON 35230); Hemacytometer (Bright line-SIGMA Z359629); FACS Buffer (PBS/0.1% BSA): Phosphate Buffered Saline (PBS) pH 7.2 (HiMedia TS1006) with 0.1% Bovine Serum Albumin (BSA) (SIGMA A7050) and sodium azide (SIGMA 08591); 5 mM stock solution of CFSE: CFSE stock solution was prepared by diluting lyophilized CFSE with 180 μL of Di methyl Sulfoxide (DMSO C2H6SO, SIGMA-D-5879) and aliquoted in to tubes for further use. Working concentrations were titrated from 10 μM to 1 μM. (eBioscience—650850-85); 0.05% Trypsin and 0.02% EDTA (SIGMA 59417C); 96-well format ELISA plates (Corning CLS3390); BD FACS caliber (E6016). Splenocytes harvested in a 50 ml falcon tube by mashing spleen in a 40 μm cell strainer were further treated with 1 ml ACK lysis buffer for 5 mins at room temperature. After washing with 9 ml of RPMI complete media, cells were re-suspended in 3 ml of 1×PBS in a 15 ml tube. 3 ml of histopaque was added very carefully to the bottom of the tube without disturbing overlaying splenocyte suspension. Spin the tube at 800×g for 20 mins at room temperature. Opaque layer of lymphocytes was collected carefully without disturbing/mixing any of the layers. Cells were washed twice with cold 1×PBS followed by total cell counting using trypan blue exclusion method and used further for cell based assays. Tumor cells were cultured and maintained in high glucose complete DMEM media. 1×10^5 tumor cells were plated in 96 well plates along with required conc. of PD1 derived peptide and allowed to adhere at 37° C. for 4 hrs. 1×10^6 cells/ml of harvested splenocytes were treated with 5 μM of CFSE in pre warmed 1×PBS/0.1% BSA solution for 10 mins at 37° C. Excess CFSE was quenched using 5 volumes of ice-cold culture media to the cells and incubated on ice for 5 mins. CFSE labeled splenocytes were further given three washes with ice cold complete DMEM media. CFSE labeled 1×10^5 splenocytes were added to above wells containing tumors cells and PD1 peptides. Splenocytes were stimulated with anti-CD3 and anti-CD28 antibody (1 μg/ml each) and the co-culture was further incubated for 72 hrs at 37° C. with 5% CO2. Cells were harvested and washed thrice with ice cold FACS buffer and % proliferation was analyzed using a FACS caliber with 488 nm excitation and 521 nm emission filters. Each experimental condition was carried out in triplicates and each experiment at least carried out three times % splenocyte proliferation was analyzed using cell quest FACS program and fold induction was calculated by normalizing individual values to % background proliferation Fold Induction=% splenocyte proliferation/% background proliferation Stimulated splenocytes: Splenocytes+anti-CD3/CD28 stimulation Background proliferation: Splenocytes+anti-CD3/CD28+PDL or Tumor Compound effect was examined by adding required conc. of compound to anti-CD3/CD28 stimulated splenocytes in presence of ligand (PDL-1/PDL-2) or tumor cells.

B16F10 cells = test: In vivo efficacy on lung metastasis in B16F10 subcutaneous melanoma model; conditions: C57/Black6 female mice, 5 mg/kg subcutaneously once daily for fourteen days
Description: C57/Black6 female mice (Aurigene, Bangalore, India) aged 6 to 8 weeks were used for the experiment. Animals were acclimatized for a week in the experimental room before conducting the experiment. On day 0, B16F10 cells grown in DMEM containing 10% FBS at 70 to 75% confluency were harvested and 0.1×10^6 cells per animal were injected to mice subcutaneously on the right flank region. On day 1, peptide (Compound #2) at 5 mg/kg dose dissolved in PBS, pH 7.4 was dosed subcutaneously at the rate of 10 ml/kg volume for fourteen days once daily. Vehicle control group of mice received only saline. Taxol at 5 MPK (i.p) with qd dosing was used as reference in this study. Each group consisted of ten animals. Body weight and clinical signs were recorded daily. […] At the end of 14 days of dosing period lung was harvested and analysed for metastasis by counting the black nodules.

[1] = % splenocyte proliferation/% background proliferation, MDAMB231 over expressing PDL1, background 1.0, stimulated splenocytes 5.5

T1 sequence (Q9NZQ7 19-290): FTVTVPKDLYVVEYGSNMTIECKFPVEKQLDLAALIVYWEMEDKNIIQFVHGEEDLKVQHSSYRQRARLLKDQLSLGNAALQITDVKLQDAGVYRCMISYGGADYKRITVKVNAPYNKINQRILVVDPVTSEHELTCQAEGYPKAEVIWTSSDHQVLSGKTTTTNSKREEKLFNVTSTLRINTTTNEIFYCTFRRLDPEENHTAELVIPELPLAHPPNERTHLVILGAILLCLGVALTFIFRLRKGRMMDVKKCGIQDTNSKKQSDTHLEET

SMILES	% Splenocyte proliferation (PD1-PDL1 interaction) [%]	clinical signs (B16F10 cells)	Fold induction (PD1-PDL1 interaction)	Fold induction (PD1-PDL1 interaction; [1])	body weight reduction during the period of dosing (B16F10 cells)
C[C@@H](O)[C@@H]1NC(=O)C(NC(=O)[C@@H](N)CO)CCCCNC(=O)CCC(C(=O)N[C@@H](CO)C(=O)N[C@@H](Cc2ccccc2)C(N)=O)NC(=O)[C@H](CO)NC1=O (stereo partly shown) [Compound 1] (H-S[ξK]TS[ξE]SF-NH2; lactam 2-5)	60	–	4.6	–	–
C[C@@H](O)[C@@H]1NC(=O)[C@@H](NC(=O)[C@@H](N)CO)CCC(=O)NCCCC[C@@H](C(=O)N[C@@H](CO)C(=O)N[C@@H](Cc2ccccc2)C(N)=O)NC(=O)[C@H](CO)NC1=O [Compound 2] (H-SETSKSF-NH2; lactam 2-5)	57	no clinical signs observed	–	4.3	no body weight reduction
C[C@@H](O)[C@@H]1NC(=O)C(NC(=O)[C@@H](N)CCC(=O)O)CCC(=O)NCCCCC(C(=O)N[C@@H](CO)C(=O)N[C@@H](Cc2ccccc2)C(N)=O)NC(=O)[C@H](CO)NC1=O (stereo partly shown) [Compound 4] (H-E[ξE]TS[ξK]SF-NH2; lactam 2-5; N-terminus assumed)	36	–	–	2.8	–
CC[C@H](C)[C@H](NC(=O)[C@H](CO)NC(=O)C1CCCCNC(=O)CCC(NC(=O)[C@@H](N)CO)C(=O)N[C@@H]([C@@H](C)O)C(=O)N[C@@H](CO)C(=O)N1)C(N)=O (stereo partly shown) [Compound 5] (H-S[ξE]TS[ξK]SI-NH2; lactam 2-5; N-terminus assumed)	42	–	–	3.2	–
CC[C@H](C)[C@H](N)C(=O)NC1CCC(=O)NCCCCC(C(=O)N[C@@H](CO)C(=O)N[C@@H](Cc2ccccc2)C(N)=O)NC(=O)[C@H](CO)NC(=O)[C@H]([C@@H](C)O)NC1=O (stereo partly shown) [Compound 6] (H-I[ξE]TS[ξK]SF-NH2; lactam 2-5; N-terminus assumed)	55	–	–	4.2	–
CC(C)[C@H](NC(=O)C1CCCCNC(=O)CCC(NC(=O)[C@@H](N)CO)C(=O)N[C@@H]([C@@H](C)O)C(=O)N[C@@H](CO)C(=O)N1)C(=O)N[C@@H](Cc1ccccc1)C(N)=O (stereo partly shown) [Compound 7] (H-S[ξE]TS[ξK]VF-NH2; lactam 2-5; N-terminus assumed)	52	–	–	4.0	–
CC[C@H](C)[C@H](N)C(=O)NC1CCC(=O)NCCCCC(C(=O)N[C@@H](CO)C(=O)NC(CCC(N)=O)C(=O)O)NC(=O)[C@H](CO)NC(=O)[C@H](CCSC)NC1=O (stereo partly shown) [Compound 11] (H-I[ξE]MS[ξK]S[ξQ]-OH; lactam 2-5; N-terminus assumed)	54	–	–	4.2	–
CC[C@H](C)[C@H](N)C(=O)NC1CCC(=O)NCCCCC(C(=O)N[C@H](C(=O)NC(CCC(N)=O)C(=O)O)C(C)C)NC(=O)[C@H](CO)NC(=O)[C@H](CCSC)NC1=O (stereo partly shown) [Compound 12] (H-I[ξE]MS[ξK]V[ξQ]-OH; lactam 2-5)	39	–	–	3.0	–
C[C@@H](O)[C@@H]1NC(=O)[C@H](CC(N)=O)NC(=O)C(CO)NC(=O)C(CCC(N)=O)NC(=O)[C@H](Cc2ccccc2)NC(=O)[C@H](CO)NC(=O)[C@H](CCC(=O)O)NC(=O)[C@H](CO)NC1=O (stereo partly shown) [Compound 14] (cyclo(ESF[ξQ][ξS]NTS))	55	–	–	4.2	–

Second part, led by results:

% Splenocyte proliferation (PD1-PDL1 interaction) [%]	clinical signs (B16F10 cells)	SMILES	Fold induction (PD1-PDL1 interaction)	Fold induction (PD1-PDL1 interaction; [1])	body weight reduction during the period of dosing (B16F10 cells)
53	–	C[C@@H](O)[C@@H]1NC(=O)[C@H](CC(N)=O)NC(=O)C(CO)NC(=O)C(CCC(N)=O)NC(=O)CCCCCNC(=O)[C@H](Cc2ccccc2)NC(=O)[C@H](CO)NC(=O)[C@H](CCC(=O)O)NC(=O)[C@H](CO)NC1=O (stereo partly shown) [Compound 15] (cyclo([Ahx][ξQ][ξS]NTSESF))	4	–	–
36	–	C[C@@H](O)[C@@H]1NC(=O)[C@H](CCC(=O)O)NC(=O)C(CO)NC(=O)C(CCC(N)=O)NC(=O)[C@H](Cc2ccccc2)NC(=O)[C@H](CO)NC(=O)[C@H](CCCCN)NC(=O)[C@H](CO)NC1=O (stereo partly shown) [Compound 16] (cyclo(ETSKSF[ξQ][ξS]))	–	2.8	–
42	–	C[C@@H](O)[C@@H]1NC(=O)[C@H](CCC(=O)O)NC(=O)C(CO)NC(=O)CCCCCNC(=O)C(CCC(N)=O)NC(=O)[C@H](Cc2ccccc2)NC(=O)[C@H](CO)NC(=O)[C@H](CCCCN)NC(=O)[C@H](CO)NC1=O (stereo partly shown) [Compound 17] (cyclo([Ahx][ξS]ETSKSF[ξQ]))	–	3.2	–
36	–	C[C@@H](O)[C@@H]1NC(=O)[C@H](CCC(=O)O)NC(=O)C(CO)NC(=O)CCC(C(N)=O)NC(=O)[C@H](Cc2ccccc2)NC(=O)[C@H](CO)NC(=O)[C@H](CCCCN)NC(=O)[C@H](CO)NC1=O (stereo partly shown) [Compound 20] ([ξS]ETSKSF[ξE]-NH2; lactam N-8)	–	2.8	–
